According to BindingDB's records for doi:10.1021/jm070521y (Wyeth Research, 2007):
pEC50, pKi: −log10 of the molar value.

Legend:
[1] = molecular target: T1, 5-hydroxytryptamine receptor 6 (Homo sapiens, UniProt P50406); experiment: Radioligand Labeled Binding Assay and cAMP Production; details: pH 7.4; 22 °C
Description: (§1) IC50 values for each test compound were determined from nonlinear regression analysis of data collected from ligand binding experiments. The inhibition constant (Ki) was calculated from IC50 value by the Cheng and Prusoff equation.

[2] = molecular target: T1, 5-hydroxytryptamine receptor 6; experiment: Radioligand Labeled Binding Assay; details: pH 7.4; 22 °C
Description: as §1

T1 sequence (P50406 whole entry): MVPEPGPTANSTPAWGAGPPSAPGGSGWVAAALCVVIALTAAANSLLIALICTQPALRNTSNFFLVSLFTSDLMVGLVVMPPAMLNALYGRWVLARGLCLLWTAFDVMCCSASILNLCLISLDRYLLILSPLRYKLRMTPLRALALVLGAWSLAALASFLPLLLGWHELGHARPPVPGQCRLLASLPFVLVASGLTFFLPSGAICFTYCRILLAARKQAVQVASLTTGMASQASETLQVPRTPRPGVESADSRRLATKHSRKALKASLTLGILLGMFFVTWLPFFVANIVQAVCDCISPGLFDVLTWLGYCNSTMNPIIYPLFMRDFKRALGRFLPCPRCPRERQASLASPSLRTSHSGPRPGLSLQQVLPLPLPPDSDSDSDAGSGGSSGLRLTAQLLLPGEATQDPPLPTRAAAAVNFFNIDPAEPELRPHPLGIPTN

SMILES | pEC50 [1] | pKi [2] | pKi [1]
COc1ccc(S(=O)(=O)n2cc(CCN)c3ccccc32)cc1OC [2-{1-[(3,4-dimethoxybenzene)sulfonyl]-1H-indol-3-yl}ethan-1-amine] | 7.76 |  | 
NC(N)=NN=Cc1c[nH]c2ccc(Br)cc12 [3-[(E)-[(5-bromo-1H-indol-3-yl)methylidene]amino]guanidine] |  | 7.60 | 
CC(=NNC(=N)N)c1cn(S(=O)(=O)c2ccccc2)c2ccccc12 [3-[(E)-{1-[1-(benzenesulfonyl)-1H-indol-3-yl]ethylidene}amino]guanidine] |  | 8.10 | 
Cc1nc(N)sc1S(=O)(=O)n1cc(CCN)c2ccccc21 [5-{[3-(2-aminoethyl)-1H-indole-1-]sulfonyl}-4-methyl-1,3-thiazol-2-amine] | 8.02 |  | 8.00
